Measured values as given in patent publication US20210163453A1, “DERIVATIVES OF PAPAVERINE THAT ARE EFFECTIVE HYPOXIC TUMOR RADIOSENSITIZERS” (Ohio State Innovation Foundation, priority 2018, published 2021).
Structures can show the parent of a compound that is named as a salt.

Assays:
mitochondrial complex 1 = assay: Seahorse OCR inhibition of PPV derivatives, normalized to PPV; format: cell-based
Protocol: (§1) FIGS. 7A-7D show OCR and cellular toxicity data. […]. Bars represent mean OCR and PDE10 inhibitory activities from at least 5 (OCR) or 3 (PDE) replicates. All experiments were repeated at least twice. […] Values are mean+−SEM.
(§2) Seahorse analysis of the OCR. Oxygen consumption rate (OCR) was measured using Seahorse XF96 Flux Analyzer (Agilent Technologies). The cells were seeded to attach overnight, wells were washed with pre-warmed XF Calibrant (Agilent Technologies) and the replaced with unbuffered Assay Medium (pH 7.4, 5 mM glucose, 1 mM L-glutamine). The plates were incubated at 37° C. in a CO2-free incubator for 2 hours prior to assay. For succinate rescue assay, cells were permeabilized using XF Plasma Membrane Permeabilizer Reagent (XF PMP, Agilent Technologies) according to the manufacturer's instructions. The OCR rate was measured in 1× Mitochondrial Assay Solution (MAS) (70 mM sucrose, 220 mM mannitol, 10 mM KH2PO4, 5 mM MgCl2, 2 mM Hepes, 0.6% (w/v) fatty acid-free BSA and 1 mM EGTA; pH 7.4). After baseline oxygenation was established, 1 μM rotenone or 10 μM PPV was injected at time A, followed by 5 mM succinate at time B. Error bars represent standard deviation. For the washout experiment, EO771 cells were seeded overnight, then treated with 10 μM PPV or 1 μM rotenone 3 hours prior to OCR measurement. Media was replaced 1 and 2 hours before measurement and OCR reported.
Because PPV's effect on mitochondrial function is independent of cAMP levels it was reasoned that there are two activities in PPV, one inhibiting complex 1 and one inhibiting PDE10A that may reside in different parts of the molecule. The structure activity relationship of PPV relative to two assays was assessed: inhibition of cellular OCR by Seahorse, and inhibition of PDE10A by purified enzyme activity in multiwell plate (PDE10A activity assay kit, BPS Bioscience). Because PPV can compete with rotenone as complex 1 inhibitors, it was reasoned that they may be binding the same site and therefore the structures would be similar relative to the mitochondrial binding target. […] Because the top was a planar structure similar to that of rotenone, and they compete with each other for the same binding pocket on complex 1 (FIG. 10) the lower portion of the molecule and how it may resemble rotenone were investigated in more detail. It was established that flexible linkage was preferred for mitochondrial activity and bulky adducts to the lower benzene ring may block it (FIG. 7C). […] These lead compounds were synthesized from commercial precursors and purified on silica gel column. Structures were confirmed by ^1H NMR and found to be >95% pure by HPLC.

PDE10A = molecular target: T1, PDE10A (Homo sapiens, UniProt Q9Y233); assay: PDE10A enzymatic assay (PDE10A activity assay kit, BPS Bioscience); format: biochemical
T1 construct: purchased BPS Bioscience
Protocol: FIGS. 7A-7D show OCR and cellular toxicity data. […] Bars represent mean OCR and PDE10 inhibitory activities from at least 5 (OCR) or 3 (PDE) replicates. All experiments were repeated at least twice. […] Values are mean+−SEM. […]
The structure activity relationship of PPV relative to two assays was assessed: inhibition of cellular OCR by Seahorse, and inhibition of PDE10A by purified enzyme activity in multiwell plate (PDE10A activity assay kit, BPS Bioscience). […] These lead compounds were synthesized from commercial precursors and purified on silica gel column.

A549 cells = assay: Seahorse OCR in A549 cells (dose response, IC50, washout); format: cell-based, Human; settings: Homo sapiens; A549 cells by Seahorse, n=5 replicates; read-out: mitochondrial IC50 (OCR IC50)
[1] = Cellular toxicity of PPV derivatives by trypan blue; format: cell-based; settings: 10 uM, 72 h
Protocol: as §1
Experimental: Cell lines. All cell lines were purchased from the American Type Culture Collection (ATCC) and grown DMEM (Corning) supplemented with 10% FBS (Seradigm) and 1% Penicillin/Streptomycin (Fisher Bioreagents) at 37° C. in 5% CO2. Cells were treated with inhibitors papaverine hydrochloride (Sigma-Aldrich), rotenone (Sigma-Aldrich), piericidin A (Santa Cruz), capsaicin (Sigma-Aldrich), antimycin A (Sigma-Aldrich) and succinic acid disodium salt (Sigma-Aldrich). Cell viability was assessed by trypan blue exclusion.

EO771 tumors [2] = assay: Pimonidazole staining, hypoxic fraction of EO771 tumors; format: in vivo, mice; settings: orthotopic EO771, immune-competent mice, 2 mg per kg
Protocol: (§3) P values were calculated against thigh muscle with two-tailed two-sample t test. FIG. 3B-3C show normalized tissue oxygenation in EO771 (b) or A549 (c) tumor-bearing mice after injection of 2 mg/kg PPV or vehicle saline (readings taken every minute, and curve is average of 5 traces). P value was analyzed by linear mixed model with autoregressive correlation structure at T=30-40 minutes. […] Values are mean area covered by pimonidazole-positive cells evaluated from 20 images per animal+−SEM. P value was calculated with two-tailed two-sample t test. […] Curves represent mean tumor volumes+−SEM. P values were calculated against XRT with two-tailed two-sample t test.
(§4) Bar graphs represent the mean area covered by pimonidazole-positive cells evaluated from 20 images per animal+−standard error of the mean. P value was calculated against control with two-tailed two-sample t test. […] Mean volumes+−SEM. P values were calculated against XRT with two-tailed two-sample t test. *P<0.05; **P<0.01; ***P<0.001; ****P<0.0001; n.s., not significant.
Pimonidazole staining. […] […] […] The hypoxic fraction of each tumor was quantified by thresholding signal at 50% of the maximum signal on control sections. Area covered by pimonidazole-positive cells was evaluated from 20 images per animal and averaged. Error bars represent the standard deviation.

EO771 tumors [3] = assay: Tumor growth delay of EO771 tumors with radiation (XRT); format: in vivo, mice; settings: heterotopic EO771 flank tumors, nude mice, 2 mg/kg 35 minutes prior to 5 Gy
Protocol: as §3
FIGS. 4A-4G show tumor growth before and after radiosensitization with PPV. FIG. 4A-4B show in vitro radiation survival assessment of A549 cell line treated with 10 μm PPV in normoxia (FIG. 4A) and anoxia (FIG. 4B). […] Values represent averaged colony counts+−standard deviation. […] Values are mean tumor volumes+−SEM. […] Values are mean tumor volumes+−SEM. FIG. 4E-4F show tumor growth delay. When tumors reached 4-fold volume increase, groups receiving no treatment or PPV only (FIG. 4E); and XRT only or PPV followed by XRT (FIG. 4F), tumor weights were compared. Values are mean tumor weights+−SEM (n=8). P values were calculated with two-tailed two-sample t test. FIG. 4G are related to FIG. 4E-4F tumor growth delay. Representative images of orthotopic EO771 tumors harvested on day 11 after treatment with XRT (top) or 2 mg/kg PPV followed by XRT (bottom). *P<0.05; **P<0.01; ***P<0.001; ****P<0.0001; n.s., not significant.
as §4
Tumor Growth kinetics. 2×10^6 EO771 or 5×10^6 A549 cells were injected s.c. into the flanks of 6-week old female immunocompetent C57/B6 (EO771) or immunocompromised nu/nu (A549) mice. Caliper measurements of opposing diameter were used to calculate the tumor volumes. Upon reaching […], the tumors were visualized by cone beam CT and treatment plans calculated using SARRP software. X-rays were delivered with a single beam delivering 5 Gy using the Small Animal Research Radiation Platform (SARRP, Xstrahl). Tumor volumes were measured until the post treatment volume increased 3-fold. Error bars represent standard deviation.
Both models of transplanted tumors that were used for the oxygenation experiments of papaverine's effect on radiation response in vivo were investigated. The murine breast cancer line EO771 that is syngeneic with the BL6 strain of mice was used and transplanted it orthotopically into the mammary fat pad of immune-competent mice. Also used was the human A549 lung adenocarcinoma line that was transplanted into the flank of immune-deficient mice. The breast cancers grew to approximately 150 mm^3 and were then randomized to receive either no treatment, a single dose of either 5 Gy, or papaverine at 2 mg/kg followed 30-40 minutes later by 5 Gy.

Panc1 cells = assay: Seahorse OCR in Panc1 cell line; format: cell-based, Human; settings: increasing concentrations (sildenafil citrate 0, 5, 10, 20; 8-Bromo-cAMP 0, 10, 20)
Protocol: FIGS. 7A-7D show OCR and cellular toxicity data. […] Bars represent mean OCR and PDE10 inhibitory activities from at least 5 (OCR) or 3 (PDE) replicates. All experiments were repeated at least twice. […] Values are mean+−SEM.
as §2

T1 sequence (Q9Y233 267-1055): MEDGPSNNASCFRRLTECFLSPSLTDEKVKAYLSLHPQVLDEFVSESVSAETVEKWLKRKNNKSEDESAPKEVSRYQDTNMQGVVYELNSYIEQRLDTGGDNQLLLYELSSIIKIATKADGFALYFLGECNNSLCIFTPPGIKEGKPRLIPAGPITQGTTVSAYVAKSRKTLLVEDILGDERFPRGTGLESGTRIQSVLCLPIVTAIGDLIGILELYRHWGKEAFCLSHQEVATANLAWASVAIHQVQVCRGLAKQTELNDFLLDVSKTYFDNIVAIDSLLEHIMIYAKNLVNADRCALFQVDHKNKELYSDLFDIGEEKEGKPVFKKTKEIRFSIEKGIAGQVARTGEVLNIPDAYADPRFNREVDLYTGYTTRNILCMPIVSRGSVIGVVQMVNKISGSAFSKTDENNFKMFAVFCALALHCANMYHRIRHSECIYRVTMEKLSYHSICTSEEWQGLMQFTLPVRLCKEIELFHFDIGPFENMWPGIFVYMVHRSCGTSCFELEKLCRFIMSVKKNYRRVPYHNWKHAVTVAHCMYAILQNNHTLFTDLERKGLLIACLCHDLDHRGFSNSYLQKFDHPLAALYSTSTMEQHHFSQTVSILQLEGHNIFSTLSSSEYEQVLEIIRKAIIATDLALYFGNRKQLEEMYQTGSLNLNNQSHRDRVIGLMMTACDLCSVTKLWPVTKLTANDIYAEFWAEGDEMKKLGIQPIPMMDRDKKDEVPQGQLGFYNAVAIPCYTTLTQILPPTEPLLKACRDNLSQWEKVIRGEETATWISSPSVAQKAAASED

SMILES | Inhibitory activity OCR % of PPV (mitochondrial complex 1; Seahorse, OCR inhibition at 10 μM concentration, normalized to PPV) | complex 1 activity compared to PPV (mitochondrial complex 1; compared to PPV) | IC20 (PDE10A; PDE10A2 enzymatic assay, n=3 replicates, read-out: PDE IC20 (PDE10A IC20)) | Inhibitory activity PDE10A % of PPV (PDE10A; PDE10A inhibition at 1 μM, normalized to PPV) | PDE10 activity compared to PPV (PDE10A; compared to PPV) | IC50 (A549 cells) | cellular toxicity in vitro [1] | tumor hypoxia by pimonidazole staining (EO771 tumors [2]) | growth delay compared to radiation alone (EO771 tumors [3]) | effect on OCR (Panc1 cells)
COc1cc2ccnc(Cc3cc(C)cc(C)c3)c2cc1OC [SMV-23] | 20.37 % of PPV | 20% | 0.5 µM | 121.49 % of PPV | 125% | 94 µM | Neither of these compounds shows cellular toxicity | no effect on hypoxia | no increase in growth delay | –
CCCc1nn(C)c2c(=O)[nH]c(-c3cc(S(=O)(=O)N4CCN(C)CC4)ccc3OCC)nc12 [sildenafil citrate] | – | – | – | – | – | – | – | – | – | no effect
